Results reported in US20070104774A1, “Method for preparing phytosphingosine liposome composition” (priority 2003, published 2007).

How the values were obtained:
[1] = cited from earlier work
[2] = Stability test of water lotion formulation of phytosphingosine liposome: size and sedimentation on storage at R.T. and low temperature; type: physicochemical; settings: dissolved using an acid only such as lactic acid; as time went by and at low temperatures
Description: For a liposome solution containing 4 wt. % of phytosphingosine prepared according to Examples 3 and 7 and a solution in which the liposome solution was diluted so as to make a final concentration of phytosphingosine be 0.5% in a water lotion product, it was examined a stability of phytosphingosine liposome in water lotion formulation, based on sizes and sedimentation states as time went by and sizes and sedimentation states when storing at R.T. and a low temperature, respectively. Water lotion formulations used in the above test are as follows. The unit is wt. %. In water lotion formulations of liposome containing phytosphingosine, results of size variations as time went by are as follows. The unit is nm.

In the case of `CCCCCCCCCCCCCC[C@@H](O)[C@@H](O)[C@@H](N)CO` [phytosphingosine], the “solubility in isocetyl alcohol” value ([1]; isocetyl alcohol solvent) is listed as 1 wt. %, the solubility in water ([1]; water) is listed as “never dissolved in water” and the behaviour on storage [2] is listed as “recrystallized”.
